Data from patent publication US6545182B2, “Methods and compositions for modulating alpha adrenergic receptor activity” (Allergan Sales, Inc., priority 2000, dated 2003).

What was measured:
Format in all cases: cell-based
[1] = molecular target: T1, alpha 2A adrenergic receptor (Homo sapiens, UniProt P08913); test: RSAT (Receptor Selection and Amplification Technology) assay, alpha 2A; details: for EC50: NIH-3T3 cells cotransfected with receptor and Gq/i5; for efficacy or intrinsic activity (value in parentheses) Alpha 2A: ratio of maximal effect to that of standard full agonist brimonidine
T1 construct: expressed in transfected cells; host or cells: NIH-3T3 cells, transient cotransfection by calcium phosphate
T1 sequence (P08913 1-465): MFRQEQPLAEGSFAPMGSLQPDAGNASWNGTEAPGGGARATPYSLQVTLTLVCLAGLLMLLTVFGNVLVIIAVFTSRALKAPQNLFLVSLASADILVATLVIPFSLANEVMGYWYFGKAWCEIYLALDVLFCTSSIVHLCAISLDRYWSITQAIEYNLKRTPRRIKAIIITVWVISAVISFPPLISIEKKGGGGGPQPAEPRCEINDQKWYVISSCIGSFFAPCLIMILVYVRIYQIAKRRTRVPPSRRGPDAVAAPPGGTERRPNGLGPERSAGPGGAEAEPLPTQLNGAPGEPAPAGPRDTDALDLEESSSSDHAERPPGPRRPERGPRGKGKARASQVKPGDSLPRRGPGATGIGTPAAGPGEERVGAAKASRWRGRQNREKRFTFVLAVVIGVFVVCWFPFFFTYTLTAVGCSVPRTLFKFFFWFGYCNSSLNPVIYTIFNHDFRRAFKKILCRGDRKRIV
Experimental: (§1) Activity was measured using the RSAT (Receptor Selection and Amplification Technology) assay, developed by Receptor Technologies, Inc. of Winooski, Vt. (now Acadia Pharmaceuticals of San Diego, Calif.), adapted for use with recombinant alpha2 adrenergic receptors in collaboration with Allergan. The assay measures receptor-mediated loss of contact inhibition that results in selective proliferation of receptor-containing cells in a mixed population of confluent cells. The increase in cell number is assessed with an appropriate transfected marker gene such as β-galactosidase, the activity of which can be easily measured in a 96-well format. Receptors that activate the G protein, Gq, elicit this response. Alpha2 receptors, which normally couple to Gi, activate the RSAT response when coexpressed with a hybrid Gq protein that has a Gi receptor recognition domain, called Gq/i5.
(§2) The assay is conducted as follows. NIH-3T3 cells are plated at a density of 2×10^6 cells in 15 cm dishes and maintained in Dulbecco's modified Eagle's medium supplemented with 10% calf serum. One day later, cells are cotransfected by calcium phosphate precipitation with mammalian expression plasmids encoding p-SV-β-galactosidase (5-10 μg), receptor (1-2 μg) and G protein (1-2 μg). 40 μg salmon sperm DNA may also be included in the transfection mixture to increase transfection efficiency. Fresh media is added on the following day and 1-2 days later, cells are harvested and frozen in 50 assay aliquots. Transfectant cells are thawed and 100 μl added to 100 μl aliquots of various concentrations of drugs in triplicate in 96-well dishes. Incubations continue 72-96 hr at 37°. After washing with phosphate-buffered saline, β-galactosidase enzyme activity is determined by adding 200 μl of the chromogenic substrate (consisting of 3.5 mM o-nitrophenyl-β-D-galactopyranoside and 0.5% of the non-ionic surfactant nonidet P-40 in phosphate buffered saline), incubating overnight at 30° and measuring optical density at 420 nm. The absorbency is a measure of enzyme activity, which depends on cell number and reflects a receptor-mediated cell proliferation. The EC50 and maximal effect of each drug at each alpha2 receptor is determined. The efficacy or intrinsic activity is calculated as a ratio of the maximal effect of the drug to the maximal effect of a standard full agonist for each receptor subtype. Brimonidine, also called UK14304, is used as the standard agonist for the alpha2A, alpha2B and alpha2C receptors. The RSAT assay is also discussed in Messier et al. (1995) High throughput assays of cloned adrenergic, muscarinic, neurokinin and neurotrophin receptors in living mammalian cells, Pharmacol. Toxicol. 76:308-11; see also Conklin et al. (1993) Substitution of three amino acids switches receptor specificity of Gqα to that of Giα, Nature 363:274-6; Both of these papers are incorporated by reference herein.

[2] = molecular target: T2, alpha 2B adrenergic receptor (Homo sapiens, UniProt P18089); test: RSAT (Receptor Selection and Amplification Technology) assay, alpha 2B; details: for EC50: NIH-3T3 cells cotransfected with receptor and Gq/i5; for efficacy or intrinsic activity (value in parentheses) Alpha 2B: ratio of maximal effect to that of standard full agonist brimonidine
T2 construct: expressed in transfected cells; host or cells: NIH-3T3 cells, transient cotransfection by calcium phosphate
T2 sequence (P18089 1-450): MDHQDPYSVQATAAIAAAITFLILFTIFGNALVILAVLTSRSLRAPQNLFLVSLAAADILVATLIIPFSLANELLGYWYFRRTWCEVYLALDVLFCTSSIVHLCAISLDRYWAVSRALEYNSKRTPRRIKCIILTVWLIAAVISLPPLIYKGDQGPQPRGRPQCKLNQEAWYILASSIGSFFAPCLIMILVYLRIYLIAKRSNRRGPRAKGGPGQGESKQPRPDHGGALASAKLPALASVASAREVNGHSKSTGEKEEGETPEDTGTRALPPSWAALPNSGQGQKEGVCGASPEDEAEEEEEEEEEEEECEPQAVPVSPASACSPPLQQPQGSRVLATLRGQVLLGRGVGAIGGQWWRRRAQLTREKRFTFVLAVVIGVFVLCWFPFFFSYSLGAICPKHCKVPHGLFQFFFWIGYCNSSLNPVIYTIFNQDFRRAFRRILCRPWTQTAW
Experimental: as §1, §2

[3] = molecular target: T3, alpha 2C adrenergic receptor (Homo sapiens, UniProt P18825); test: RSAT (Receptor Selection and Amplification Technology) assay, alpha 2C; details: for EC50: NIH-3T3 cells cotransfected with receptor and Gq/i5; for efficacy or intrinsic activity (value in parentheses) Alpha 2C: ratio of maximal effect to that of standard full agonist brimonidine
T3 construct: expressed in transfected cells; host or cells: NIH-3T3 cells, transient cotransfection by calcium phosphate
T3 sequence (P18825 1-462): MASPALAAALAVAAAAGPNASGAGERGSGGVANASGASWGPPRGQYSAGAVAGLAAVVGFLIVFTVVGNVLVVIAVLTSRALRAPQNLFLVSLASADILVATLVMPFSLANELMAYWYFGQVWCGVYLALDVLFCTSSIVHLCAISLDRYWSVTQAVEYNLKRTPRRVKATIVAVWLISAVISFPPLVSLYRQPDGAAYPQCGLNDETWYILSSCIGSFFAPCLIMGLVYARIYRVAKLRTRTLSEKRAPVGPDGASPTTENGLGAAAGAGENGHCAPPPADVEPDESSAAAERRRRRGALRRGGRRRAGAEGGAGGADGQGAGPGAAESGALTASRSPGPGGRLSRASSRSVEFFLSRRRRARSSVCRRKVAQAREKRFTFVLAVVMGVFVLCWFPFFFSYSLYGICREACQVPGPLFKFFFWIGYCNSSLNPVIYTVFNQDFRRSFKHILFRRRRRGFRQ
Experimental: as §1, §2

OCCNC(=S)NCc1cc(Br)ccc1F
EC50 [1]: ≥ 210000 nM
EC50 [2]: 36 nM
efficacy or intrinsic activity (value in parentheses) Alpha 2B [2]: 0.97
EC50 [3]: 459 nM
efficacy or intrinsic activity (value in parentheses) Alpha 2C [3]: 0.58

OCCNC(=S)NCc1cc(F)ccc1F
EC50 [1]: ≥ 210000 nM
EC50 [2]: 13 nM
efficacy or intrinsic activity (value in parentheses) Alpha 2B [2]: 0.85
EC50 [3]: 53 nM
efficacy or intrinsic activity (value in parentheses) Alpha 2C [3]: 0.51

COc1cccc(CNC(=S)NCCO)c1
EC50 [1]: ≥ 210000 nM
EC50 [2]: 898 nM
efficacy or intrinsic activity (value in parentheses) Alpha 2B [2]: 0.40
EC50 [3]: ≥ 210000 nM

OCCNC(=S)NCc1cc(C(F)(F)F)ccc1F
EC50 [1]: ≥ 210000 nM
EC50 [2]: 523 nM
efficacy or intrinsic activity (value in parentheses) Alpha 2B [2]: 0.8
EC50 [3]: 853 nM
efficacy or intrinsic activity (value in parentheses) Alpha 2C [3]: 0.7

OCCNC(=S)NCc1c(F)ccc(Cl)c1Cl
EC50 [1]: ≥ 210000 nM
EC50 [2]: 30 nM
efficacy or intrinsic activity (value in parentheses) Alpha 2B [2]: 0.75
EC50 [3]: 238 nM
efficacy or intrinsic activity (value in parentheses) Alpha 2C [3]: 0.34

OCCNC(=S)NCc1c(F)ccc(Cl)c1F
EC50 [1]: ≥ 210000 nM
EC50 [2]: 98 nM
efficacy or intrinsic activity (value in parentheses) Alpha 2B [2]: 0.83
EC50 [3]: > 2000 nM

OCCNC(=S)NCc1c(F)cccc1I
EC50 [1]: ≥ 210000 nM
EC50 [2]: 141 nM
efficacy or intrinsic activity (value in parentheses) Alpha 2B [2]: 1.08
EC50 [3]: > 2000 nM

OCCNC(=S)NCc1cccc(Cl)c1
EC50 [1]: ≥ 210000 nM
EC50 [2]: 16 nM
efficacy or intrinsic activity (value in parentheses) Alpha 2B [2]: 0.7
EC50 [3]: ≥ 210000 nM

CCOc1ccccc1CNC(=S)NCCO
EC50 [1]: ≥ 210000 nM
EC50 [2]: 42 nM
efficacy or intrinsic activity (value in parentheses) Alpha 2B [2]: 0.7
EC50 [3]: 28 nM
efficacy or intrinsic activity (value in parentheses) Alpha 2C [3]: 0.4

OCCNC(=S)NCc1cc(Cl)ccc1F
EC50 [1]: ≥ 210000 nM
EC50 [2]: 17 nM
efficacy or intrinsic activity (value in parentheses) Alpha 2B [2]: 1.13
EC50 [3]: 87 nM
efficacy or intrinsic activity (value in parentheses) Alpha 2C [3]: 0.6

COc1c(F)cccc1CNC(=S)NCCO
EC50 [1]: ≥ 210000 nM
EC50 [2]: 169 nM
efficacy or intrinsic activity (value in parentheses) Alpha 2B [2]: 0.95
EC50 [3]: 843 nM
efficacy or intrinsic activity (value in parentheses) Alpha 2C [3]: 0.38

COc1ccc(Cl)cc1CNC(=S)NCCO
EC50 [1]: 380 nM
efficacy or intrinsic activity (value in parentheses) Alpha 2A [1]: 0.33
EC50 [2]: 19 nM
efficacy or intrinsic activity (value in parentheses) Alpha 2B [2]: 1.09
EC50 [3]: 175 nM
efficacy or intrinsic activity (value in parentheses) Alpha 2C [3]: 0.53

OCCNC(=S)NCc1c(F)cc(F)c(F)c1F
EC50 [1]: ≥ 210000 nM
EC50 [2]: 2050 nM
efficacy or intrinsic activity (value in parentheses) Alpha 2B [2]: 0.89
EC50 [3]: ≥ 210000 nM

OCCNC(=S)NCc1ccc(F)c(Br)c1F
EC50 [1]: ≥ 210000 nM
EC50 [2]: 138 nM
efficacy or intrinsic activity (value in parentheses) Alpha 2B [2]: 1.01
EC50 [3]: 786 nM
efficacy or intrinsic activity (value in parentheses) Alpha 2C [3]: 0.66

OCCNC(=S)NCc1cccc(I)c1F
EC50 [1]: 62 nM
efficacy or intrinsic activity (value in parentheses) Alpha 2A [1]: 0.85
EC50 [2]: 2 nM
efficacy or intrinsic activity (value in parentheses) Alpha 2B [2]: 1.35
EC50 [3]: 23 nM
efficacy or intrinsic activity (value in parentheses) Alpha 2C [3]: 0.91

Cc1ccc(Br)c(CNC(=S)NCCO)c1F
EC50 [1]: ≥ 210000 nM
EC50 [2]: 115 nM
efficacy or intrinsic activity (value in parentheses) Alpha 2B [2]: 0.8
EC50 [3]: > 3000 nM

OCCNC(=S)NCc1cccc(C(F)(F)F)c1F
EC50 [1]: ≥ 210000 nM
EC50 [2]: 37 nM
efficacy or intrinsic activity (value in parentheses) Alpha 2B [2]: 0.7
EC50 [3]: 632 nM
efficacy or intrinsic activity (value in parentheses) Alpha 2C [3]: 0.3

COc1ccc(F)c(CNC(=S)NCCO)c1
EC50 [1]: ≥ 210000 nM
EC50 [2]: 282 nM
efficacy or intrinsic activity (value in parentheses) Alpha 2B [2]: 0.91

OCCNC(=S)NCc1cc(Cl)cc(Cl)c1F
EC50 [1]: ≥ 210000 nM
EC50 [2]: 118 nM
efficacy or intrinsic activity (value in parentheses) Alpha 2B [2]: 0.92

OCCNC(=S)NCc1cc(Br)ccc1Cl
EC50 [1]: ≥ 210000 nM
EC50 [2]: 50 nM
efficacy or intrinsic activity (value in parentheses) Alpha 2B [2]: 0.78

OCCNC(=S)NCc1c(F)ccc(Br)c1F
EC50 [1]: ≥ 210000 nM
EC50 [2]: 205 nM
efficacy or intrinsic activity (value in parentheses) Alpha 2B [2]: 0.81

OCCNC(=S)NCc1cccc(C(F)(F)F)c1Cl
EC50 [1]: ≥ 210000 nM
EC50 [2]: 33 nM
efficacy or intrinsic activity (value in parentheses) Alpha 2B [2]: 1.1

Cc1ccc(F)c(CNC(=S)NCCO)c1
EC50 [1]: ≥ 210000 nM
EC50 [2]: 95 nM
efficacy or intrinsic activity (value in parentheses) Alpha 2B [2]: 0.91

OCCNC(=S)NCc1cc(F)c(F)cc1F
EC50 [1]: ≥ 210000 nM
EC50 [2]: 271 nM
efficacy or intrinsic activity (value in parentheses) Alpha 2B [2]: 0.48

OCCNC(=S)NCc1cc(Cl)ccc1Br
EC50 [1]: ≥ 210000 nM
EC50 [2]: 25 nM
efficacy or intrinsic activity (value in parentheses) Alpha 2B [2]: 0.82
